Assay results taken from patent US20170007615A1, “Antibacterial Compounds” (priority 2014, published 2017).
In brackets after ≈: the same amount, converted by molar mass. Where two headings read alike, the source gives them in different places.

Tests used:
E. cloaceae (ATCC 13047) [1] = details: Table 6
[2] = test system: A. baumannii (ATCC 19606); details: Table 4
S. aureus (ATCC 29213) = assay: Antibacterial activity (MIC), Gram-positive type strain; type: cell-based, Staphylococcus aureus; details: Staphylococcus aureus, ATCC29213; Table 13
E. cloaceae (ATCC 13047) [3] = assay: microbe, parasite or virus in culture; details: Enterobacter cloacae, ATCC13047, read-out: MIC Compound alone
[4] = test system: P. aeruginosa drug resistant clinical isolates; assay: Antibacterial activity (MIC) against drug resistant clinical isolates, alone and with PMBN; type: cell-based; details: for MIC: Pseudomonas aeruginosa, read-out: MIC Compound alone
[5] = test system: N. gonorrheae (ATCC 49226); assay: Antibacterial activity (MIC), Gram-negative type strain; type: cell-based, Neisseria gonorrhoeae; details: Neisseria gonorrhoeae, ATCC49226; Table 13
[6] = test system: E. coli drug resistant clinical isolates; assay: Antibacterial activity (MIC) against drug resistant clinical isolates, alone and with PMBN; type: cell-based; details: for MIC: Escherichia coli, read-out: MIC Compound alone

Compound: CCNC(=O)Nc1nc2cc(-c3cnc(NS(=O)(=O)C(C)(C)C)nc3)cc(-c3ccc(C)cn3)c2s1 [Compound A-13, 1-[5-[2-(tert-Butylsulfonylamino)pyrimidin-5-yl]-7-(5-methyl-2-pyridyl)-1,3-benzothiazol-2-yl]-3-ethyl-urea]
- MIC of Compound (μg/ml) in the presence of PMBN (128 μg/ml) (E. cloaceae (ATCC 13047) [1]): 0.25 µg/mL
- MIC of Compound (μg/ml) in the presence of PMBN (128 μg/ml) [2]: 0.03 µg/mL
- MIC (S. aureus (ATCC 29213)): ≤ 0.008 µg/mL
- MIC (E. cloaceae (ATCC 13047) [3]): > 64 µg/mL
- MIC of Compound (μg/ml) in the presence of PMBN (128 μg/ml) ([4]; P. aeruginosa (MMX3007)): 0.03 µg/mL
- MIC of Compound (μg/ml) in the presence of PMBN (128 μg/ml) ([4]; P. aeruginosa (MMX3022)): 0.03 µg/mL
- MIC of Compound (μg/ml) in the presence of PMBN (128 μg/ml) ([4]; P. aeruginosa (MMX3025)): 0.03 µg/mL
- MIC of Compound (μg/ml) in the presence of PMBN (128 μg/ml) ([4]; P. aeruginosa (MMX3026)): ≦0.008 μg/ml
- MIC of Compound (μg/ml) in the presence of PMBN (128 μg/ml) ([4]; P. aeruginosa (MMX4700)): 0.12 µg/mL
- MIC of Compound (μg/ml) in the presence of PMBN (128 μg/ml) ([4]; P. aeruginosa (NCTC13437)): 0.016 µg/mL
- MIC ([4]; NCTC13437, P. aeruginosa (NCTC13437)): 16 µg/mL (≈ 30.4 µM)
- MIC ([4]; P. aeruginosa (MMX3007)): > 16 µg/mL
- MIC ([4]; P. aeruginosa (MMX3022)): 8 µg/mL (≈ 15.2 µM)
- MIC ([4]; P. aeruginosa (MMX3025)): > 16 µg/mL
- MIC ([4]; P. aeruginosa (MMX3026)): > 16 µg/mL
- MIC ([4]; P. aeruginosa (MMX4700)): 16 µg/mL (≈ 30.4 µM)
- MIC [5]: ≤ 0.008 µg/mL
- MIC of Compound (μg/ml) in the presence of PMBN (128 μg/ml) ([6]; E. coli (BAA200)): ≦0.008 μg/ml
- MIC of Compound (μg/ml) in the presence of PMBN (128 μg/ml) ([6]; E. coli (MMX 1312)): ≦0.008 μg/ml
- MIC of Compound (μg/ml) in the presence of PMBN (128 μg/ml) ([6]; E. coli (MMX 2232)): ≦0.008 μg/ml
- MIC of Compound (μg/ml) in the presence of PMBN (128 μg/ml) ([6]; E. coli (MMX 5743)): ≦0.008 μg/ml
- MIC of Compound (μg/ml) in the presence of PMBN (128 μg/ml) ([6]; E. coli (MMX 5771)): ≦0.12 μg/ml
- MIC of Compound (μg/ml) in the presence of PMBN (128 μg/ml) ([6]; E. coli (MMX 6413)): ≦0.12 μg/ml
- MIC of Compound (μg/ml) in the presence of PMBN (128 μg/ml) ([6]; E. coli (NCTC11954)): ≦0.008 μg/ml
- MIC of Compound (μg/ml) in the presence of PMBN (128 μg/ml) ([6]; E. coli (NCTC13351)): ≦0.12 μg/ml
- MIC of Compound (μg/ml) in the presence of PMBN (128 μg/ml) ([6]; E. coli (NCTC13352)): ≦0.008 μg/ml
- MIC of Compound (μg/ml) in the presence of PMBN (128 μg/ml) ([6]; E. coli (NCTC13353)): ≦0.008 μg/ml
- MIC of Compound (μg/ml) in the presence of PMBN (128 μg/ml) ([6]; E. coli (NCTC13400)): ≦0.008 μg/ml
- MIC of Compound (μg/ml) in the presence of PMBN (128 μg/ml) ([6]; E. coli (NCTC13441)): ≦0.12 μg/ml
- MIC of Compound (μg/ml) in the presence of PMBN (128 μg/ml) ([6]; E. coli (NCTC13450)): ≦0.12 μg/ml
- MIC of Compound (μg/ml) in the presence of PMBN (128 μg/ml) ([6]; E. coli (NCTC13461)): ≦0.12 μg/ml
- MIC of Compound (μg/ml) in the presence of PMBN (128 μg/ml) ([6]; E. coli (NCTC13462)): ≦0.008 μg/ml
- MIC of Compound (μg/ml) in the presence of PMBN (128 μg/ml) ([6]; E. coli (NCTC13463)): ≦0.008 μg/ml
- MIC of Compound (μg/ml) in the presence of PMBN (128 μg/ml) ([6]; E. coli (NCTC13476)): ≦0.12 μg/ml
- MIC ([6]; BAA200, E. coli (BAA200)): > 4 µg/mL
- MIC ([6]; E. coli (MMX 1312)): 16 µg/mL (≈ 30.4 µM)
- MIC ([6]; E. coli (MMX 2232)): 16 µg/mL (≈ 30.4 µM)
- MIC ([6]; E. coli (MMX 5743)): 4 µg/mL (≈ 7.61 µM)
- MIC ([6]; E. coli (MMX 5771)): > 64 µg/mL
- MIC ([6]; E. coli (MMX 6413)): > 64 µg/mL
- MIC ([6]; NCTC11954, E. coli (NCTC11954)): 2 µg/mL (≈ 3.8 µM)
- MIC ([6]; NCTC13351, E. coli (NCTC13351)): > 64 µg/mL
- MIC ([6]; NCTC13352, E. coli (NCTC13352)): 4 µg/mL (≈ 7.61 µM)
- MIC ([6]; NCTC13353, E. coli (NCTC13353)): 1 µg/mL (≈ 1.9 µM)
- MIC ([6]; NCTC13400, E. coli (NCTC13400)): > 4 µg/mL
- MIC ([6]; NCTC13441, E. coli (NCTC13441)): > 64 µg/mL
- MIC ([6]; NCTC13450, E. coli (NCTC13450)): > 64 µg/mL
- MIC ([6]; NCTC13461, E. coli (NCTC13461)): > 64 µg/mL
- MIC ([6]; NCTC13462, E. coli (NCTC13462)): > 4 µg/mL
- MIC ([6]; NCTC13463, E. coli (NCTC13463)): 2 µg/mL (≈ 3.8 µM)
